Two molecules from patent US9410100B2, “Tritylated ethers” (ANGUS Chemical Company, priority 2012, dated 2016) can be followed below.

A short description of series [1]: Solubility studies of functionalized tritylated phenol ethers in solvents. The series is classed as physicochemical. As to the method: The solubility properties of functionalized tritylated phenol ethers were determined by mixing 0.1 gram samples of sample in 0.9 grams of solvent. The mixtures were warmed at 60° C. for a few minutes to make homogeneous solutions. The solutions were cooled back to room temperature, and then they were placed into a freezer at −10° C. The solutions were checked daily to see if crystallization had occurred.

SMILES strings stand for the structures.

`OCCCCCCOc1ccc(C(c2ccccc2)(c2ccccc2)c2ccccc2)cc1OCCCCCCO` [Ex. 4, 6,6′-((4-trityl-1,2-phenylene)bis(oxy))bis(hexan-1-ol)]: the melting point was 81 to 84 °C. The “Solubility at RT” value in series [1] (10 wt % in 1-Octanol, cooled to room temperature) is on record as “soluble”. Besides, in series [1] (10 wt % in 1-Octanol, warmed at 60 C), the “Solubility at 60 C.” value is “soluble”. Also, the “Solubility at RT” value in series [1] (10 wt % in AROMATIC 200, cooled to room temperature) was “insoluble”. Further, in series [1] (10 wt % in AROMATIC 200, warmed at 60 C), the “Solubility at 60 C.” value was “insoluble”. Moreover, in series [1] (10 wt % in DMAc, cooled to room temperature), the “Solubility at RT” value is on record as “soluble”. Besides, in series [1] (10 wt % in DMAc, warmed at 60 C), the “Solubility at 60 C.” value was “soluble”. In series [1] (10 wt % in DPGME, cooled to room temperature), the “Solubility at RT” value was “soluble”. Further, in series [1] (10 wt % in DPGME, warmed at 60 C), the “Solubility at 60 C.” value was “soluble”. In series [1] (10 wt % in NMP, cooled to room temperature), the “Solubility at RT” value was “soluble”. For the same molecule, in series [1] (10 wt % in NMP, warmed at 60 C), the “Solubility at 60 C.” value is “soluble”. Also, in series [1] (10 wt % in Tetralin, cooled to room temperature), the “Solubility at RT” value was “insoluble”. The “Solubility at 60 C.” value in series [1] (10 wt % in Tetralin, warmed at 60 C) is “soluble”.

For `OCCCCCCOc1ccc(C(c2ccccc2)(c2ccccc2)c2ccccc2)cc1` [compound 1, 6-(4-Tritylphenoxy)hexan-1-ol], the melting point lay within 158 to 161 °C.
